Tested on: p38-2
Test: Immune complex kinase assay of HA-tagged p38-2 from transiently transfected COS cells, GST-ATF2 substrate
Assay type: cell-based, human
Text: An expression vector encoding epitope-tagged p38-2 (3×HA-p38-2-SRα3) was constructed by adding sequence encoding three copies of a 10 amino acid hemagglutinin (HA) epitope to the N-terminus of p38-2 and ligating the resulting cDNA into the expression vector SRα3. To investigate the pattern of regulation of p38-2, COS cells were transiently transfected with HA-p38-2-SRα3 (as described above) by the DEAE-Dextran method (Kawai and Nishizawa, Mol. Cell. Biol. 4:1172–1174, 1984).
Following treatment, cell lysates were prepared by solubilization in lysis buffer as described (Derijard et al., Cell 76:1025–1037, 1994), and protein concentration of lysates was determined by Bradford assay (Bradford, Ann Biochem. 72:248–254, 1976). Cell lysates were used in an immune complex kinase assay with GST-ATF2 substrate, prepared as previously described (Gupta et al., Science 267:389–39, 1995). The assay was generally performed as described previously (Derijard et al., Cell 76:1025–1037, 1994; Lin et al., Science 268:286–290, 1995) with minor modifications. The concentration of [γ-^32P]ATP was 50 nM, and 30 μg cell lysate was immunoprecipitated for 2 hours with the anti-HA antibody 12CA5 (Boehringer-Mannheim Corp., Indianapolis, Ind.) and then incubated with 1 μg of recombinant substrate.

Structure (SMILES) | induction of p38-2 (kinase activity, ATF2 phosphorylation) (COS cells transfected with HA-p38-2, anisomycin 50 ng/mL for 45 minutes) | increase in p38-2 activity (ATF2 phosphorylation)
COc1ccc(C[C@H]2NC[C@H](O)[C@H]2OC(C)=O)cc1 [anisomycin] | strong induction | –
[Cl-].[Na+] [NaCl] | – | No increase

— patent publication US7202049B2, “Mitogen-activated protein kinase p38-2 and methods of use therefor” (Signal Pharmaceuticals, Inc., priority 1996, dated 2007)
